According to patent US10265346B2, “Trehalose-containing mammalian cell suspension for prevention of pulmonary embolism formation” (OTSUKA PHARMACEUTICAL FACTORY, INC., priority 2012, dated 2019):

Experiment: Preventive effect against pulmonary embolism formation (no method given)
Conditions: stated as demonstrated by the present inventors, no data given

For dextran, the “preventive effect against pulmonary embolism formation (in words)” value was “demonstrated to have a preventive effect against pulmonary embolism formation”.
